Measured values from ChEMBL document CHEMBL3727344, “2-fluoro-benzenesulfonamide compounds as RAF kinase modulators” (2014).

Legend:
[1] = biological target: T1, Serine/threonine-protein kinase A-Raf (Homo sapiens, UniProt P10398); experiment: Inhibition of A-Raf (unknown origin)
T1 sequence (P10398 whole entry): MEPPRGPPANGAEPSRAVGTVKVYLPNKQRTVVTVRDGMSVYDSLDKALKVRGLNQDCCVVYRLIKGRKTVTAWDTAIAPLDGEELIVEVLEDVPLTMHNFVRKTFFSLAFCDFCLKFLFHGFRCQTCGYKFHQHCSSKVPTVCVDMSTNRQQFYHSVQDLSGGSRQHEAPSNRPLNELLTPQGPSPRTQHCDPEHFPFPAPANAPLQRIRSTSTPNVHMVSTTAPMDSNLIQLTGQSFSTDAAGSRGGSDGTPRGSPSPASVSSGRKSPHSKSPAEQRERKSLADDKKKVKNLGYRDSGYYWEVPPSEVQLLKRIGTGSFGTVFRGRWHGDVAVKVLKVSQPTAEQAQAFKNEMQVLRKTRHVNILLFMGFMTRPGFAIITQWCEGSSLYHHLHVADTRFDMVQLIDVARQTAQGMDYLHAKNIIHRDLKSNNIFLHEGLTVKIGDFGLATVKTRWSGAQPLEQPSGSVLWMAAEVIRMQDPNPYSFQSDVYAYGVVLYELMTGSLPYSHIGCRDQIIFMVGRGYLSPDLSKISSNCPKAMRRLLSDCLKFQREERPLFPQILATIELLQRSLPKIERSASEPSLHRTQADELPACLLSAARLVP

[2] = biological target: Serine/threonine-protein kinase B-raf (Homo sapiens, UniProt P15056, V600E); experiment: Inhibition of B-Raf V600E mutant (unknown origin)
Chain of Serine/threonine-protein kinase B-raf (Homo sapiens, UniProt P15056, V600E) (P15056 2-766 V600E limits assumed): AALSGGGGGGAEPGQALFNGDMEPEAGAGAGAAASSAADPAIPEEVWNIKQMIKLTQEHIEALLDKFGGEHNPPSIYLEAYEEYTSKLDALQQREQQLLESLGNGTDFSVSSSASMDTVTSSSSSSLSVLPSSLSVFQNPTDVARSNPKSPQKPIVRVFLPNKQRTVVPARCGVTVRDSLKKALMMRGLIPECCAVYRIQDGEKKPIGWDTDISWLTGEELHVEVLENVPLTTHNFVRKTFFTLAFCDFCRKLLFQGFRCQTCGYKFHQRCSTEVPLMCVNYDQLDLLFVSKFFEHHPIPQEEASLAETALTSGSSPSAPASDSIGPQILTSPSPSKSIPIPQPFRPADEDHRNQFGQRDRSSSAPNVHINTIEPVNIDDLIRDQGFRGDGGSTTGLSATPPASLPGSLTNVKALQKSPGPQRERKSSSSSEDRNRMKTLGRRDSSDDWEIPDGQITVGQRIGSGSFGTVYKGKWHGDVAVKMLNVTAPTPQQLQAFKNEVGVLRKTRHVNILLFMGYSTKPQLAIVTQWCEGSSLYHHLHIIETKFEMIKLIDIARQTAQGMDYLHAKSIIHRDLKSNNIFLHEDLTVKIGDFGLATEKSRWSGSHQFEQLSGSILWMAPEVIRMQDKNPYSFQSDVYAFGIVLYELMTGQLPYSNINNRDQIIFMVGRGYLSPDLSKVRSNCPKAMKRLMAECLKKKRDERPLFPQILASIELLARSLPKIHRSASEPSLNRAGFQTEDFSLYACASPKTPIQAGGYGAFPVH

[3] = biological target: RAF proto-oncogene serine/threonine-protein kinase (Homo sapiens, UniProt P04049); experiment: Inhibition of c-Raf 1 (unknown origin)
Chain of RAF proto-oncogene serine/threonine-protein kinase (P04049 whole entry): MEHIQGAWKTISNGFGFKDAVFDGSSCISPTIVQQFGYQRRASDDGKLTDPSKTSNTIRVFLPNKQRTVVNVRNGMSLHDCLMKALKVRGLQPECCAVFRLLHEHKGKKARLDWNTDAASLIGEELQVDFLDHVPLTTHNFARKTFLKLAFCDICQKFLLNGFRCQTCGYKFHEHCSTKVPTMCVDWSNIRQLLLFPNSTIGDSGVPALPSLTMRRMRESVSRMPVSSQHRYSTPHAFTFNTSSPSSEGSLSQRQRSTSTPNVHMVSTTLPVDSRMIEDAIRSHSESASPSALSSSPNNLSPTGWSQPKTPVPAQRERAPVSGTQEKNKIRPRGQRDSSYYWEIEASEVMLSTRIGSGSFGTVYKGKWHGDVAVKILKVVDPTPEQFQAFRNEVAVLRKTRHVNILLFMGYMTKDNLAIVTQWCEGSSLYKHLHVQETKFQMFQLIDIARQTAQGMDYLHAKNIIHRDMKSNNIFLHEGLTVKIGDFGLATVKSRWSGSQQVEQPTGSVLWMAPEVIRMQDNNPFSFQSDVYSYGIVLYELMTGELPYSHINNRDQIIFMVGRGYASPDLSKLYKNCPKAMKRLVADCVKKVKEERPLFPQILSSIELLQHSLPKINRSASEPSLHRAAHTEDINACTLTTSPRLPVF

[4] = biological target: Serine/threonine-protein kinase B-raf (Homo sapiens, UniProt P15056); experiment: Inhibition of B-Raf (unknown origin)
Chain of Serine/threonine-protein kinase B-raf (Homo sapiens, UniProt P15056) (P15056 whole entry): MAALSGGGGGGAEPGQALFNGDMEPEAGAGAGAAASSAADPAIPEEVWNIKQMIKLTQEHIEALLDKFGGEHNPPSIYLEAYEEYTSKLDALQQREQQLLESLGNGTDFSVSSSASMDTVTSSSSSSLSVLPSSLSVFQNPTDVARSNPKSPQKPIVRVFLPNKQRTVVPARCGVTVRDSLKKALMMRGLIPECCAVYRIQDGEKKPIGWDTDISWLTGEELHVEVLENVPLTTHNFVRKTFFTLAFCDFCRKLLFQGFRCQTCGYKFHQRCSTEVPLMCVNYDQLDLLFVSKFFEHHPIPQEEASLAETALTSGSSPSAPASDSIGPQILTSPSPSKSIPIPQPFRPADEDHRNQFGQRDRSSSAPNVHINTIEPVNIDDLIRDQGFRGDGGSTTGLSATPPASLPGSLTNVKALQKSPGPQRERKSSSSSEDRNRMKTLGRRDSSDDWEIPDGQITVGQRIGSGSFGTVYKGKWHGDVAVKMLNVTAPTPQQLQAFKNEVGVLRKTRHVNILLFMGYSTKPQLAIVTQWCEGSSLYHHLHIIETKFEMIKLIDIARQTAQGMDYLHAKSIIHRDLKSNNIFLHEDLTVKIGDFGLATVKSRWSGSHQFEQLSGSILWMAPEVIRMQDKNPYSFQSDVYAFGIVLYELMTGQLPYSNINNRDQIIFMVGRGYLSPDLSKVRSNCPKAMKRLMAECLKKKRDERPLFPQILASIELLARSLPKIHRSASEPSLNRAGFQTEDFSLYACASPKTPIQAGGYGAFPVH

[5] = biological target: Macrophage colony-stimulating factor 1 receptor (Homo sapiens, UniProt P07333); experiment: Inhibition of Fms (unknown origin)
Chain of Macrophage colony-stimulating factor 1 receptor (P07333 whole entry): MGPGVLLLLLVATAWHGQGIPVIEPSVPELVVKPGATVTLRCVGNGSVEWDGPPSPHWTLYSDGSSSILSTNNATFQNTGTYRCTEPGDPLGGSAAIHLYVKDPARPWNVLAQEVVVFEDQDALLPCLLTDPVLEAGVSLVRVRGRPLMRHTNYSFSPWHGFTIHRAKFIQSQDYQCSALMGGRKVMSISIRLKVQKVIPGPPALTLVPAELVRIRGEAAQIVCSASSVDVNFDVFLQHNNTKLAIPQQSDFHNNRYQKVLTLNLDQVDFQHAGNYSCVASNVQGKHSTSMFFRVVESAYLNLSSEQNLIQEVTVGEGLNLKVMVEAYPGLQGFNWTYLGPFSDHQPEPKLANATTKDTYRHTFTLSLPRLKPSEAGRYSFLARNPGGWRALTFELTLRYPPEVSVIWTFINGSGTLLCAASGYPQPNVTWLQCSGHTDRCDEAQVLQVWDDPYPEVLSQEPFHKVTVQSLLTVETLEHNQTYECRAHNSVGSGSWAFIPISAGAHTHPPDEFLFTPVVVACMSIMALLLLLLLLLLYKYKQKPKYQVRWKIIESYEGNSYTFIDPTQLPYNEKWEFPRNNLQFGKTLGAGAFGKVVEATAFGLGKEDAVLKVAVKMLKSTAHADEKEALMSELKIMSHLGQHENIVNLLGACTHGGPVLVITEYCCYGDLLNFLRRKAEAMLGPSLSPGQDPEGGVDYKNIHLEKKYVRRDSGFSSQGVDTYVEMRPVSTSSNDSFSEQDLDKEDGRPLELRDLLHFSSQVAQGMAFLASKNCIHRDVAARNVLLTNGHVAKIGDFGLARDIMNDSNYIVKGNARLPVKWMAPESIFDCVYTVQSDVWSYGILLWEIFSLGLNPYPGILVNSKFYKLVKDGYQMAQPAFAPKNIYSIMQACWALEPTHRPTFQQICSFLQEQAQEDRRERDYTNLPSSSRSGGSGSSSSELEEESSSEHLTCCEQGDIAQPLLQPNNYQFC

[6] = biological target: Focal adhesion kinase 1 (Homo sapiens, UniProt Q05397); experiment: Inhibition of Fak (unknown origin)
[7] = biological target: High affinity nerve growth factor receptor (Homo sapiens, UniProt P04629); experiment: Inhibition of TrkA (unknown origin)
Chain of High affinity nerve growth factor receptor (P04629 whole entry): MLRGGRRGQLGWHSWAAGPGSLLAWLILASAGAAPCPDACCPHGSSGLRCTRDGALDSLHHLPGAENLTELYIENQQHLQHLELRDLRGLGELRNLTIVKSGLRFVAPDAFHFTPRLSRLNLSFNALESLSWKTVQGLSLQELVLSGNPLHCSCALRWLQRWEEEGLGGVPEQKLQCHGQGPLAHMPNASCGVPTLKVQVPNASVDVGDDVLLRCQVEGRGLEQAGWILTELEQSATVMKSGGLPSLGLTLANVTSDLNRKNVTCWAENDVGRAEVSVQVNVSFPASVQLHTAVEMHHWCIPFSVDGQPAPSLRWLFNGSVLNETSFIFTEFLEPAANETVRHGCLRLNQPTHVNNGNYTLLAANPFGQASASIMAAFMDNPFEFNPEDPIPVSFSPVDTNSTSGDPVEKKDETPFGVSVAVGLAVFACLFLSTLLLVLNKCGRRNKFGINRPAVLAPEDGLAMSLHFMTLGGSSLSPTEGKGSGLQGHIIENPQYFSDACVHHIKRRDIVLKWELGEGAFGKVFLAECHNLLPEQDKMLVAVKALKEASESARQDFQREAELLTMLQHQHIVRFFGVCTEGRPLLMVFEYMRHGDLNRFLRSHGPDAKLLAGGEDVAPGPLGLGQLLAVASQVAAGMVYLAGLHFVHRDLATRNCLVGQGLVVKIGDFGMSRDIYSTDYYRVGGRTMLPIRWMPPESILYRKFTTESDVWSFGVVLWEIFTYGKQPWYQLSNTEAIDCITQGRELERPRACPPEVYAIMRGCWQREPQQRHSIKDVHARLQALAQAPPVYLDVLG

[8] = biological target: Proto-oncogene tyrosine-protein kinase Src (Homo sapiens, UniProt P12931); experiment: Inhibition of Src (unknown origin)
Chain of Proto-oncogene tyrosine-protein kinase Src (P12931 2-536 limits assumed): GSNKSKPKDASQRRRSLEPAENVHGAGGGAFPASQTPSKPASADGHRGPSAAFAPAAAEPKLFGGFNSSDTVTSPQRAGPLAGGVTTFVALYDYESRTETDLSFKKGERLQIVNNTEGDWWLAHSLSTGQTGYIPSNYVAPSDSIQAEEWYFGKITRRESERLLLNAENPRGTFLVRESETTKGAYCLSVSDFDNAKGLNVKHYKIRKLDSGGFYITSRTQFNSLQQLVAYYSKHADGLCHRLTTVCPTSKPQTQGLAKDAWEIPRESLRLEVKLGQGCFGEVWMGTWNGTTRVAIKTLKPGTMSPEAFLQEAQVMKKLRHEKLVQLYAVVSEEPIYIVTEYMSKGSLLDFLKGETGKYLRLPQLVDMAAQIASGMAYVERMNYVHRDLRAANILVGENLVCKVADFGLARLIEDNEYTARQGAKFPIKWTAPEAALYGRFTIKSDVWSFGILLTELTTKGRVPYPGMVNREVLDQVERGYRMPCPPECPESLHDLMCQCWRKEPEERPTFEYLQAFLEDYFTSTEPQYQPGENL

[9] = biological target: Tyrosine-protein kinase Lyn (Homo sapiens, UniProt P07948); experiment: Inhibition of Lyn (unknown origin)
[10] = biological target: Protein-tyrosine kinase 6 (Homo sapiens, UniProt Q13882); experiment: Inhibition of Brk (unknown origin)
[11] = biological target: Tyrosine-protein kinase Yes (Homo sapiens, UniProt P07947); experiment: Inhibition of Yes (unknown origin)
Chain of Tyrosine-protein kinase Yes (P07947 whole entry): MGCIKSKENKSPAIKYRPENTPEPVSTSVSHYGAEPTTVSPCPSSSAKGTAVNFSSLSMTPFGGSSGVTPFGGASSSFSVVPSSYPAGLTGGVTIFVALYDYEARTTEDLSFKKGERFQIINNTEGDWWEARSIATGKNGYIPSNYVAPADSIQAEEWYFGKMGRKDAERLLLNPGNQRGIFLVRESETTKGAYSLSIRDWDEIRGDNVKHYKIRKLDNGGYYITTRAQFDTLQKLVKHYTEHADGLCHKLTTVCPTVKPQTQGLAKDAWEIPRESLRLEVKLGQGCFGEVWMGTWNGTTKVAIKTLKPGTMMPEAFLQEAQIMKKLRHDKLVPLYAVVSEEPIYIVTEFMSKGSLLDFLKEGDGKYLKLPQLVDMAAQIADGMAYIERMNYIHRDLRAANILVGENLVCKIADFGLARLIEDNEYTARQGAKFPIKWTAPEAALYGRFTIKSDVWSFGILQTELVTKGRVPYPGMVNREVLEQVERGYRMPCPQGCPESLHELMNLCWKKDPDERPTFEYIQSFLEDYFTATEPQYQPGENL

[12] = biological target: Tyrosine-protein kinase Lck (Homo sapiens, UniProt P06239); experiment: Inhibition of Lck (unknown origin)
[13] = biological target: Tyrosine-protein kinase CSK (Homo sapiens, UniProt P41240); experiment: Inhibition of Csk (unknown origin)
[14] = biological target: Tyrosine-protein kinase BTK (Homo sapiens, UniProt Q06187); experiment: Inhibition of Btk (unknown origin)
[15] = biological target: Vascular endothelial growth factor receptor 2 (Homo sapiens, UniProt P35968); experiment: Inhibition of Kdr (unknown origin)
[16] = biological target: Mast/stem cell growth factor receptor Kit (Homo sapiens, UniProt P10721); experiment: Inhibition of Kit (unknown origin)

Measured: IC50

CCCS(=O)(=O)Nc1ccc(Cl)c(C(=O)Nc2ccc(NC(=O)N3CCCC3)nc2)c1F
≤ 10 µM: [1]

CCCS(=O)(=O)Nc1ccc(Cl)c(C(=O)Nc2ccc(NC(C)C)nc2)c1F
≤ 10 µM: [2] | [1]

CCCS(=O)(=O)Nc1ccc(F)c(C(=O)Nc2cnc3ccccc3c2)c1F
≤ 10 µM: [3] | [4] | [2] | [1]

CCCS(=O)(=O)Nc1ccc(F)c(CNc2cnc3ccccc3c2)c1F
≤ 10 µM: [3] | [2] | [1]

CCCS(=O)(=O)Nc1ccc(Cl)c(C(=O)Nc2cnc3ccccn23)c1F
≤ 10 µM: [4] | [2]

CCCS(=O)(=O)Nc1ccc(Cl)c(C(=O)Nc2ccc(NCc3ccccc3)nc2)c1F
≤ 10 µM: [3] | [4] | [2] | [1]

CCCS(=O)(=O)Nc1ccc(Cl)c(C(=O)Nc2ccc(NC3CCCC3)nc2)c1F
≤ 10 µM: [3] | [1]

CCCS(=O)(=O)Nc1ccc(F)c(COc2cnc3ccccc3c2)c1F
≤ 10 µM: [2] | [1] | [5]

CCCS(=O)(=O)Nc1ccc(Cl)c(C(=O)Nc2cnc(NC(C)=O)nc2)c1F
≤ 10 µM: [3] | [4] | [2] | [1]

CCCS(=O)(=O)Nc1ccc(F)c(C(=O)Nc2ccc(NC(C)=O)nc2)c1F
≤ 10 µM: [3] | [4] | [2] | [1]

CCCS(=O)(=O)Nc1ccc(Cl)c(C(=O)Nc2ccc(NC(C)=O)nc2)c1F
≤ 10 µM: [6] | [7] | [3] | [8] | [4] | [9] | [2] | [10] | [1] | [11] | [12] | [13]

CCCS(=O)(=O)Nc1ccc(Cl)c(C(=O)Nc2cccnc2)c1F
≤ 10 µM: [3] | [2] | [1]

CCCS(=O)(=O)Nc1ccc(F)c(NCc2cnc3ccccc3c2)c1F
≤ 10 µM: [2] | [1]

CCCS(=O)(=O)Nc1ccc(Cl)c(C(=O)Nc2cnc3ccccc3c2)c1F
≤ 10 µM: [3] | [4] | [2] | [1]

CCCS(=O)(=O)Nc1ccc(Cl)c(C(=O)Nc2cc(-c3ccc(Cl)cc3)n[nH]2)c1F
≤ 10 µM: [1] | [5]

CCCS(=O)(=O)Nc1ccc(F)c(CNc2ccc(NC(C)=O)nc2)c1F
≤ 10 µM: [3] | [2] | [1]

CCCS(=O)(=O)Nc1ccc(Cl)c(C(=O)Nc2ccc(Nc3ncc(C)s3)nc2)c1F
≤ 10 µM: [7] | [3] | [14] | [15] | [8] | [16] | [4] | [2] | [1]

CCCS(=O)(=O)Nc1ccc(Cl)c(C(=O)Nc2ccc(NC3CC3)nc2)c1F
≤ 10 µM: [3] | [4] | [2] | [1]

CCCS(=O)(=O)Nc1ccc(Cl)c(C(=O)Nc2ccc(NCc3cccs3)nc2)c1F
≤ 10 µM: [3] | [4] | [2] | [1]

CCCS(=O)(=O)Nc1ccc(Cl)c(C(=O)Nc2nnc(Cc3ccc(Cl)cc3)s2)c1F
≤ 10 µM: [1]
